{"source": "ChEMBL document CHEMBL5042526", "about": "“Design, Synthesis, and Biological Evaluation of Triazolone Derivatives as Potent PPARα/δ Dual Agonists for the Treatment of Nonalcoholic Steatohepatitis” (J Med Chem, 2022)", "key": {"HepG2 [1]": {"system": "HepG2", "assay": "Agonist activity against PPARalpha/delta (unknown origin) assessed as upregulation of PDK4 mRNA expression in human HepG2 cells incubated for 12 hrs by RT-PCR analysis", "type": "cell-based", "details": "filed as agonist, dose 8-200 nM"}, "HepG2 [2]": {"system": "HepG2", "assay": "Agonist activity against PPARalpha/delta (unknown origin) assessed as upregulation of ACADVL mRNA expression in human HepG2 cells at 8 nM incubated for 12 hrs by RT-PCR analysis", "type": "cell-based", "details": "filed as agonist"}, "Mus musculus [3]": {"system": "Mus musculus", "assay": "In vivo agonist activity at PPARalpha/delta assessed as upregulation of Fads2 mRNA expression in C57BL/6Nifdc mouse liver at 10 mg/kg, po for 4 days", "type": "functional, organism-based", "details": "time 4.0 day"}, "Mus musculus [4]": {"system": "Mus musculus", "assay": "In vivo agonist activity at PPARalpha/delta assessed as upregulation of Lpf5 mRNA expression in C57BL/6Nifdc mouse liver at 10 mg/kg, po for 4 days", "type": "functional, organism-based", "details": "time 4.0 day"}, "Mus musculus [5]": {"system": "Mus musculus", "assay": "In vivo agonist activity at PPARalpha/delta assessed as upregulation of Lpin2 mRNA expression in C57BL/6Nifdc mouse liver at 10 mg/kg, po for 4 days", "type": "functional, organism-based", "details": "time 4.0 day"}, "Mus musculus [6]": {"system": "Mus musculus", "assay": "In vivo agonist activity at PPARalpha/delta assessed as upregulation of Akr1c18 mRNA expression in C57BL/6Nifdc mouse liver at 10 mg/kg, po for 4 days", "type": "functional, organism-based", "details": "time 4.0 day"}, "Mus musculus [7]": {"system": "Mus musculus", "assay": "In vivo agonist activity at PPARalpha/delta assessed as upregulation of -Grhpr mRNA expression in C57BL/6Nifdc mouse liver at 10 mg/kg, po for 4 days", "type": "functional, organism-based", "details": "time 4.0 day"}, "Mus musculus [8]": {"system": "Mus musculus", "assay": "In vivo agonist activity against PPARalpha/delta assessed as upregulation of Hilpda-mRNA expression in C57BL/6Nifdc mouse liver at 10 mg/kg, po for 4 days", "type": "functional, organism-based", "details": "time 4.0 day"}, "Mus musculus [9]": {"system": "Mus musculus", "assay": "In vivo agonist activity against PPARalpha/delta assessed as upregulation of Ucp3 mRNA expression in C57BL/6Nifdc mouse liver at 10 mg/kg, po for 4 days", "type": "functional, organism-based", "details": "time 4.0 day"}, "Mus musculus [10]": {"system": "Mus musculus", "assay": "In vivo agonist activity against PPARalpha/delta assessed as upregulation of Acs15 mRNA expression in C57BL/6Nifdc mouse liver at 10 mg/kg, po for 4 days", "type": "functional, organism-based", "details": "time 4.0 day"}, "Mus musculus [11]": {"system": "Mus musculus", "assay": "In vivo agonist activity against PPARalpha/delta assessed as upregulation of Mat2a mRNA expression in C57BL/6Nifdc mouse liver at 10 mg/kg, po for 4 days", "type": "functional, organism-based", "details": "time 4.0 day"}, "Mus musculus [12]": {"system": "Mus musculus", "assay": "In vivo agonist activity against PPARalpha/delta assessed as upregulation of Hadn-mRNA expression in C57BL/6Nifdc mouse liver at 10 mg/kg, po for 4 days", "type": "functional, organism-based", "details": "time 4.0 day"}, "Mus musculus [13]": {"system": "Mus musculus", "assay": "In vivo agonist activity against PPARalpha/delta assessed as upregulation of Nfkbia-mRNA expression in C57BL/6Nifdc mouse skeletal muscle at 10 mg/kg, po for 4 days", "type": "functional, organism-based", "details": "time 4.0 day"}, "Mus musculus [14]": {"system": "Mus musculus", "assay": "In vivo agonist activity against PPARalpha/delta assessed as upregulation of -Cidea mRNA expression in C57BL/6Nifdc mouse skeletal muscle at 10 mg/kg, po for 4 days", "type": "functional, organism-based", "details": "time 4.0 day"}, "Mus musculus [15]": {"system": "Mus musculus", "assay": "In vivo agonist activity against PPARalpha/delta assessed as upregulation of Cd36 mRNA expression in C57BL/6Nifdc mouse skeletal muscle at 10 mg/kg, po for 4 days", "type": "functional, organism-based", "details": "time 4.0 day"}, "Mus musculus [16]": {"system": "Mus musculus", "assay": "In vivo agonist activity against PPARalpha/delta assessed as upregulation of Plin5 mRNA expression in C57BL/6Nifdc mouse skeletal muscle at 10 mg/kg, po for 4 days", "type": "functional, organism-based", "details": "time 4.0 day"}, "Mus musculus [17]": {"system": "Mus musculus", "assay": "In vivo agonist activity against PPARalpha/delta assessed as upregulation of Acot1 mRNA expression in C57BL/6Nifdc mouse skeletal muscle at 10 mg/kg, po for 4 days", "type": "functional, organism-based", "details": "time 4.0 day"}, "Mus musculus [18]": {"system": "Mus musculus", "assay": "In vivo agonist activity against PPARalpha/delta assessed as upregulation of Ucp3 mRNA expression in C57BL/6Nifdc mouse skeletal muscle at 10 mg/kg, po for 4 days", "type": "functional, organism-based", "details": "time 4.0 day"}, "Mus musculus [19]": {"system": "Mus musculus", "assay": "In vivo agonist activity against PPARalpha/delta assessed as upregulation of Angptl4 mRNA expression in C57BL/6Nifdc mouse skeletal muscle at 10 mg/kg, po for 4 days", "type": "functional, organism-based", "details": "time 4.0 day"}, "COS7 [20]": {"system": "COS7", "assay": "Agonist activity at human FXR (193 to 486 residues) in Cos7 cells transfected with LBD-Gal4 and pGL435 Gal4 UAS Luc reporter plasmid at 10 uM by reporter gene assay", "type": "cell-based"}, "COS7 [21]": {"system": "COS7", "assay": "Agonist activity at human CAR (48 to 324 residues) in Cos7 cells transfected with LBD-Gal4 and pGL435 Gal4 UAS Luc reporter plasmid at 10 uM by reporter gene assay", "type": "cell-based"}, "[22]": {"assay": "Microsomal stability in human liver microsomes assessed as terminal elimination half life at 1 uM measured upto 60 mins by LC-MS/MS-11 analysis", "type": "ADME, Microsome"}, "[23]": {"biological_target": "Voltage-gated inwardly rectifying potassium channel KCNH2 (Homo sapiens, UniProt Q12809)", "sequence (Q12809 whole entry)": "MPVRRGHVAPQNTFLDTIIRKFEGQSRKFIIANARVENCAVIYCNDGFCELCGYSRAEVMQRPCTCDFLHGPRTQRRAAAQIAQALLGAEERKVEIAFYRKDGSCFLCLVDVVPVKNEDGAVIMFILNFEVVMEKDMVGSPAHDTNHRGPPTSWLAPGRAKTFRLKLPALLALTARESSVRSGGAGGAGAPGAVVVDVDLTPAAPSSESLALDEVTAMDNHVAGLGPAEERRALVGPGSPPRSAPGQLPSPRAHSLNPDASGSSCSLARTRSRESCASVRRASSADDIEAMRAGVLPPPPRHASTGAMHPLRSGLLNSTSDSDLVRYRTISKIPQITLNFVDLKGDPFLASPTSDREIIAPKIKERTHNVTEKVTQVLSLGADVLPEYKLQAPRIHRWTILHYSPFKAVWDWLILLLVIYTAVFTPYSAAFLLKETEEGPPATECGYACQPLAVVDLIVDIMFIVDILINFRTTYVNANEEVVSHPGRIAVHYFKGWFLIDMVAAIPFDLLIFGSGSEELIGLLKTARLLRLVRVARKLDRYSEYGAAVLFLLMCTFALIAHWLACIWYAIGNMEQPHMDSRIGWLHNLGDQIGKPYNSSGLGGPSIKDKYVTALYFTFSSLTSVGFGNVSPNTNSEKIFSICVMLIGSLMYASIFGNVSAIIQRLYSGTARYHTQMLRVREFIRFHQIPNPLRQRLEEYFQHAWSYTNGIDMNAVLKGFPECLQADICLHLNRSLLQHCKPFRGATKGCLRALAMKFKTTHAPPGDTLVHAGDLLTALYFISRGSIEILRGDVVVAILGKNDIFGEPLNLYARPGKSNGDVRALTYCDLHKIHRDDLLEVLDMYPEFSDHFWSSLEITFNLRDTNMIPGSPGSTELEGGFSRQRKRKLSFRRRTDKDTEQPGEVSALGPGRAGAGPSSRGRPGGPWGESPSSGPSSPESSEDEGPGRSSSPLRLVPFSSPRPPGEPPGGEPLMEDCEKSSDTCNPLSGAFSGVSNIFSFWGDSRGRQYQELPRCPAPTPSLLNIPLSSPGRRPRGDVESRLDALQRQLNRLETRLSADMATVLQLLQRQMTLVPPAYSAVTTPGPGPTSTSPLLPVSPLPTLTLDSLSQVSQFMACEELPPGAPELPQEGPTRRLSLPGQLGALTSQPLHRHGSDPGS", "assay": "Inhibition of hERG potassium channel in HEK293 cells upto 30 uM by whole-cell patch clamp assay", "type": "toxicity, cell-based"}, "Mus musculus [24]": {"system": "Mus musculus", "assay": "Anti-NASH activity in HF-CDAA-induced nonalcoholic steatohepatitis C57BL/6JNifdc mouse model assessed as reduction in steatosis by measuring hepatic total cholesterol level at 3 to 30 mg/kg, po", "type": "functional, organism-based", "details": "dose 3-30 mg/kg"}, "Mus musculus [25]": {"system": "Mus musculus", "assay": "Anti-NASH activity in HF-CDAA-induced nonalcoholic steatohepatitis C57BL/6JNifdc mouse model assessed as lipid number at 3 to 30 mg/kg, po by H and E staining method", "type": "functional, organism-based", "details": "dose 3-30 mg/kg"}, "Mus musculus [26]": {"system": "Mus musculus", "assay": "Anti-inflammatory activity in HF-CDAA-induced nonalcoholic steatohepatitis C57BL/6JNifdc mouse model assessed as decrease in Adgre1 mRNA expression at 10 mg/kg, po", "type": "functional, organism-based"}, "THP-1 [27]": {"system": "THP-1", "assay": "Anti-inflammatory activity in human THP1-derived macrophages assessed as decrease in secretion of LPS-induced IL-6 level at 8 to 200 nM for 12 hrs by ELISA kit method", "type": "functional, cell-based", "details": "dose 8-200 nM"}, "THP-1 [28]": {"system": "THP-1", "assay": "Anti-inflammatory activity in human THP1-derived macrophages assessed as decrease in secretion of LPS-induced TNF-alpha level at 8 to 200 nM for 12 hrs by ELISA kit method", "type": "functional, cell-based", "details": "dose 8-200 nM"}, "Mus musculus [29]": {"system": "Mus musculus", "assay": "Anti-fibrosis effect in HF-CDAA-induced nonalcoholic steatohepatitis C57BL/6JNifdc mouse model assessed as expression of Col1a1 marker at 10 mg/kg, po after 20 hrs by Western blot analysis", "type": "functional, organism-based"}, "AML12": {"system": "AML12", "assay": "Agonist activity against PPARalpha/delta (unknown origin) assessed as upregulation of Pdk4 mRNA expression in […] cells incubated for 12 hrs by RT-PCR analysis", "type": "cell-based", "details": "filed as agonist, dose 8-200 nM"}, "C2C12 [30]": {"system": "C2C12", "assay": "Agonist activity against PPARalpha/delta ( unknown origin) assessed as upregulation of Pdk4 mRNA expression in […] cells incubated for 12 hrs by RT-PCR analysis", "type": "cell-based", "details": "filed as agonist, dose 8-200 nM"}, "C2C12 [31]": {"system": "C2C12", "assay": "Agonist activity against PPARalpha/delta (unknown origin) assessed as upregulation of Angpt14 mRNA expression in […] cells incubated for 12 hrs by RT-PCR analysis", "type": "cell-based", "details": "filed as agonist, dose 8-200 nM"}, "C2C12 [32]": {"system": "C2C12", "assay": "Agonist activity against PPARalpha/delta (unknown origin) assessed as upregulation of Pdk4 mRNA expression in […] cells at 8 nM incubated for 12 hrs by RT-PCR analysis", "type": "cell-based", "details": "filed as agonist"}, "C2C12 [33]": {"system": "C2C12", "assay": "Agonist activity against PPARalpha/delta (unknown origin) assessed as upregulation of Cpt1A mRNA expression in […] cells at 8 nM incubated for 12 hrs by RT-PCR analysis", "type": "cell-based", "details": "filed as agonist"}}, "note": "Active and inactive are the calls of the source. The calls are words filed in the database; no cut-off is given here."}
{"smiles": "Cc1cc(Cn2ncn(-c3ccc(OC(F)(F)F)cc3)c2=O)cc(C)c1OC(C)(C)C(=O)O", "values": [{"measurement": "Activity", "setting": "HepG2 [1]", "result": "Dose-Dependent Effect"}, {"measurement": "Activity", "setting": "HepG2 [2]", "result": "Active"}, {"measurement": "Activity", "setting": "Mus musculus [3]", "result": "Active"}, {"measurement": "Activity", "setting": "Mus musculus [4]", "result": "Active"}, {"measurement": "Activity", "setting": "Mus musculus [5]", "result": "Active"}, {"measurement": "Activity", "setting": "Mus musculus [6]", "result": "Active"}, {"measurement": "Activity", "setting": "Mus musculus [7]", "result": "Active"}, {"measurement": "Activity", "setting": "Mus musculus [8]", "result": "Active"}, {"measurement": "Activity", "setting": "Mus musculus [9]", "result": "Active"}, {"measurement": "Activity", "setting": "Mus musculus [10]", "result": "Active"}, {"measurement": "Activity", "setting": "Mus musculus [11]", "result": "Active"}, {"measurement": "Activity", "setting": "Mus musculus [12]", "result": "Active"}, {"measurement": "Activity", "setting": "Mus musculus [13]", "result": "Active"}, {"measurement": "Activity", "setting": "Mus musculus [14]", "result": "Active"}, {"measurement": "Activity", "setting": "Mus musculus [15]", "result": "Active"}, {"measurement": "Activity", "setting": "Mus musculus [16]", "result": "Active"}, {"measurement": "Activity", "setting": "Mus musculus [17]", "result": "Active"}, {"measurement": "Activity", "setting": "Mus musculus [18]", "result": "Active"}, {"measurement": "Activity", "setting": "Mus musculus [19]", "result": "Active"}, {"measurement": "Activity", "setting": "COS7 [20]", "result": "inactive"}, {"measurement": "Activity", "setting": "COS7 [21]", "result": "inactive"}, {"measurement": "half-life at 1 µM", "setting": "[22]", "result": "> 2", "unit": "h"}, {"measurement": "inhibition (INH)", "setting": "[23]", "result": "Active"}, {"measurement": "Activity", "setting": "Mus musculus [24]", "result": "Active"}, {"measurement": "Activity", "setting": "Mus musculus [25]", "result": "Active"}, {"measurement": "Activity", "setting": "Mus musculus [26]", "result": "Active"}, {"measurement": "Activity", "setting": "THP-1 [27]", "result": "Active"}, {"measurement": "Activity", "setting": "THP-1 [28]", "result": "Active"}, {"measurement": "Activity", "setting": "Mus musculus [29]", "result": "Active"}, {"measurement": "Activity", "setting": "AML12", "result": "Dose-Dependent Effect"}, {"measurement": "Activity", "setting": "C2C12 [30]", "result": "Dose-Dependent Effect"}, {"measurement": "Activity", "setting": "C2C12 [31]", "result": "Dose-Dependent Effect"}, {"measurement": "Activity", "setting": "C2C12 [32]", "result": "Active"}, {"measurement": "Activity", "setting": "C2C12 [33]", "result": "Active"}]}
